Like-named read-outs stand apart in the source and are kept apart here.
Test system: epithelial cell line KB (DSMZ ACC 136)
Assay: MTT assay of proliferation under varied riboflavin content and light exposure
Format: cell-based, human
Excerpt: To address this question, three media, a) the RPMI 1640 without riboflavin and phenol red that is used in the method according to the invention and was manufactured according to our specifications by Biochrom, as well as two different RPMI 1640 charges purchased from Invitrogen which were each containing 532 nmol/L riboflavin, b) a phenol red-free (Gibco 11835), and c) a conventional RPMI 1640 (Gibco 21875) with 13.284 µmol/L phenol red. All media were supplemented with 2 mmol/L L-alanyl-1-glutamine as stabilized glutamine source (Biochrom K0302 Lot 0755 S) and the same amount of 10% (v/v) of heat-inactivated fetal calf serum (FCS) that was purchased from Invitrogen (Lot 41Q7554K) with a yield of 198 nmol/L riboflavin. […] These medium concentrations define the riboflavin concentrations in controls (see below).
In addition to the influences exerted by the different types of media alone, the riboflavin-dependent impact on the outcome of the docetaxel treatment was investigated. For this purpose 100 µl/well of docetaxel dilutions containing threefold the concentration indicated were added into the wells of microwell plates. The following seven docetaxel concentrations were tested: 19.38, 38.75, 77.5, 155, 310, 620, and 1,240 pmol/L.
To examine photoactivation-dependent riboflavin-mediated effects disturbing the outcome of ex-vivo chemoresponse-evaluation by conventional cell culture medium, and in particular in the absence of flavin-protecting experimental conditions, varying amounts of riboflavin were added. A stock solution of 200 µM (-)-riboflavin (CAS 83-68-5, Sigma R9504, FW=376.37 g/mol, purity >99%, cell culture tested) in phosphate buffered saline was diluted to adjust in each case the highest final concentration in culture (this means: after completion of the assay by addition of the other two components to the final assay volume of 300 µL) to exactly 10 µmol/L. Serial log10-dilutions were made from this concentration in each corresponding medium. These gave final concentrations in cell culture of 10.000, 1.018, 0.12, and 0.03 µmol/L in the case of medium a) (the medium according to the method of the invention), and concentrations of 10.000, 1.449, 0.594, and 0.508 µmol/L using media b) and c).
In general, each combination of riboflavin and docetaxel were tested in duplicate, and controls without additional riboflavin in quadruplicate for each experimental setting in the same 96-well plate. The experimental conditions were as follows: For each of the used media, two different plates were prepared simultaneously and either handled completely under flavin-protecting conditions (illumination only by sodium discharge lamps with an emission wavelength of 589 nm [i]), or in the same bench (Thermo MSC 12) with the installed light inside their working chamber switched on. The dilution of docetaxel and those of riboflavin in the particular medium were prepared for all four plates of each medium type prior to the other working steps under flavin-protecting conditions. Thus the administrations of these dilutions took about 20 min either under flavin-protecting conditions or illuminated conditions. After completed preparation of the plates that thereafter contained 200 µL of both diluted compounds, the plates were incubated 2 h in the incubator to allow for adjustment of the appropriate pH.
In between the stock culture of KB was harvested by trypsination of a 3-days stock culture (exponential growth phase). Stock cultures of KB cells always were grown without any antibiotic or antimycotic in phenol red- and riboflavin-free RPMI 1640 supplemented with 10% (v/v) FCS and were adapted to this medium for more than five passages. They were always handled at room temperature or warmer and were never exposed to light other than the light of a sodium discharge lamp with an emission wavelength of 589 nm for at least five passages. […]

IC50 (Homo sapiens, Epithelial cell, 0.5 h, Plate No. 07; Riboflavin 499 nmol/L; medium b) phenol red-free RPMI 1640, bench lighting <30 min, read-out: IC50 for docetaxel with reference to control with same riboflavin content): 0.169 nM
IC50 (Homo sapiens, Epithelial cell, 0.5 h, Plate No. 07; Riboflavin 508 nmol/L; medium b) phenol red-free RPMI 1640, bench lighting <30 min, read-out: IC50 for docetaxel with reference to control with same riboflavin content): 0.124 nM
IC50 (Homo sapiens, Epithelial cell, 0.5 h, Plate No. 07; Riboflavin 594 nmol/L; medium b) phenol red-free RPMI 1640, bench lighting <30 min, read-out: IC50 for docetaxel with reference to control with same riboflavin content): 0.172 nM
IC50 (Homo sapiens, Epithelial cell, 0.5 h, Plate No. 07; Riboflavin 1449 nmol/L; medium b) phenol red-free RPMI 1640, bench lighting <30 min, read-out: IC50 for docetaxel with reference to control with same riboflavin content): 0.128 nM
IC50 (Homo sapiens, Epithelial cell, 0.5 h, Plate No. 07; Riboflavin 10000 nmol/L; medium b) phenol red-free RPMI 1640, bench lighting <30 min, read-out: IC50 for docetaxel with reference to control with same riboflavin content): 0.135 nM
IC50 (Homo sapiens, Epithelial cell, 0.5 h, Plate No. 08; Riboflavin 499 nmol/L; medium b) phenol red-free RPMI 1640, bench lighting <30 min, daylight 30 min, read-out: IC50 for docetaxel with reference to control with same riboflavin content): 0.181 nM
IC50 (Homo sapiens, Epithelial cell, 0.5 h, Plate No. 08; Riboflavin 508 nmol/L; medium b) phenol red-free RPMI 1640, bench lighting <30 min, daylight 30 min, read-out: IC50 for docetaxel with reference to control with same riboflavin content): 0.186 nM
IC50 (Homo sapiens, Epithelial cell, 0.5 h, Plate No. 08; Riboflavin 594 nmol/L; medium b) phenol red-free RPMI 1640, bench lighting <30 min, daylight 30 min, read-out: IC50 for docetaxel with reference to control with same riboflavin content): 0.208 nM
IC50 (Homo sapiens, Epithelial cell, 0.5 h, Plate No. 10; Riboflavin 499 nmol/L; medium c) conventional RPMI 1640 with phenol red, daylight 30 min, read-out: IC50 for docetaxel with reference to control with same riboflavin content): 0.421 nM
IC50 (Homo sapiens, Epithelial cell, 0.5 h, Plate No. 10; Riboflavin 508 nmol/L; medium c) conventional RPMI 1640 with phenol red, daylight 30 min, read-out: IC50 for docetaxel with reference to control with same riboflavin content): 0.337 nM
IC50 (Homo sapiens, Epithelial cell, 0.5 h, Plate No. 10; Riboflavin 594 nmol/L; medium c) conventional RPMI 1640 with phenol red, daylight 30 min, read-out: IC50 for docetaxel with reference to control with same riboflavin content): 0.264 nM
IC50 (Homo sapiens, Epithelial cell, 0.5 h, Plate No. 10; Riboflavin 1449 nmol/L; medium c) conventional RPMI 1640 with phenol red, daylight 30 min, read-out: IC50 for docetaxel with reference to control with same riboflavin content): 0.136 nM
IC50 (Homo sapiens, Epithelial cell, 0.5 h, Plate No. 11; Riboflavin 499 nmol/L; medium c) conventional RPMI 1640 with phenol red, bench lighting <30 min, read-out: IC50 for docetaxel with reference to control with same riboflavin content): 0.225 nM
Structure (SMILES): CC(=O)O[C@@]12CO[C@@H]1C[C@H](O)[C@@]1(C)C(=O)[C@H](O)C3=C(C)[C@@H](OC(=O)[C@H](O)[C@@H](NC(=O)OC(C)(C)C)c4ccccc4)C[C@@](O)([C@@H](OC(=O)c4ccccc4)[C@H]21)C3(C)C [docetaxel]
IC50 (Homo sapiens, Epithelial cell, 0.5 h, Plate No. 06; Riboflavin 594 nmol/L; medium b), daylight 30 min, read-out: IC50 for docetaxel normalized to medium control of medium with same riboflavin content): 0.0838 nM
IC50 (Homo sapiens, Epithelial cell, 0.5 h, Plate No. 07; Riboflavin 499 nmol/L; medium b), bench lighting <30 min, read-out: IC50 for docetaxel normalized to medium control of medium with same riboflavin content): 0.1 nM
IC50 (Homo sapiens, Epithelial cell, 0.5 h, Plate No. 07; Riboflavin 508 nmol/L; medium b), bench lighting <30 min, read-out: IC50 for docetaxel normalized to medium control of medium with same riboflavin content): 0.0735 nM
IC50 (Homo sapiens, Epithelial cell, 0.5 h, Plate No. 07; Riboflavin 594 nmol/L; medium b), bench lighting <30 min, read-out: IC50 for docetaxel normalized to medium control of medium with same riboflavin content): 0.102 nM
IC50 (Homo sapiens, Epithelial cell, 0.5 h, Plate No. 07; Riboflavin 1449 nmol/L; medium b), bench lighting <30 min, read-out: IC50 for docetaxel normalized to medium control of medium with same riboflavin content): 0.0759 nM
IC50 (Homo sapiens, Epithelial cell, 0.5 h, Plate No. 07; Riboflavin 10000 nmol/L; medium b), bench lighting <30 min, read-out: IC50 for docetaxel normalized to medium control of medium with same riboflavin content): 0.0801 nM
IC50 (Homo sapiens, Epithelial cell, 0.5 h, Plate No. 08; Riboflavin 499 nmol/L; medium b), bench lighting <30 min, daylight 30 min, read-out: IC50 for docetaxel normalized to medium control of medium with same riboflavin content): 0.1 nM
IC50 (Homo sapiens, Epithelial cell, 0.5 h, Plate No. 08; Riboflavin 508 nmol/L; medium b), bench lighting <30 min, daylight 30 min, read-out: IC50 for docetaxel normalized to medium control of medium with same riboflavin content): 0.103 nM
IC50 (Homo sapiens, Epithelial cell, 0.5 h, Plate No. 08; Riboflavin 594 nmol/L; medium b), bench lighting <30 min, daylight 30 min, read-out: IC50 for docetaxel normalized to medium control of medium with same riboflavin content): 0.115 nM
IC50 (Homo sapiens, Epithelial cell, 0.5 h, Plate No. 10; Riboflavin 499 nmol/L; medium c), daylight 30 min, read-out: IC50 for docetaxel normalized to medium control of medium with same riboflavin content): 0.1 nM
IC50 (Homo sapiens, Epithelial cell, 0.5 h, Plate No. 10; Riboflavin 508 nmol/L; medium c), daylight 30 min, read-out: IC50 for docetaxel normalized to medium control of medium with same riboflavin content): 0.0801 nM
IC50 (Homo sapiens, Epithelial cell, 0.5 h, Plate No. 10; Riboflavin 594 nmol/L; medium c), daylight 30 min, read-out: IC50 for docetaxel normalized to medium control of medium with same riboflavin content): 0.0627 nM
IC50 (Homo sapiens, Epithelial cell, 0.5 h, Plate No. 10; Riboflavin 1449 nmol/L; medium c), daylight 30 min, read-out: IC50 for docetaxel normalized to medium control of medium with same riboflavin content): 0.0323 nM
